Experiments:
lens aldose reductase = lens aldose reductase (Bos taurus, UniProt P16116); assay: in vitro aldose reductase inhibition test (modified Hayman and Kinoshita procedure); type: biochemical, bovine; details: statement in words
Text: In the present case the procedure of Hayman and Kinoshita is modified in that the final chromatography step is omitted in the preparation of the enzyme from bovine lens.

[1] = Acheson et al., Gastroenterology, 37, 735 (1959); cited from earlier work

With O=C(O)CCC(=O)c1ccc2c(c1)-c1cccc3cccc-2c13 [Florantyrone, γ-Oxo-8-fluoranthenebutanoic acid] as the compound, how does the “inhibitor of lens aldose reductase” value (lens aldose reductase) read?
Its value is “potent inhibitor of lens aldose reductase”.

What about the hydrocholeretic activity [1] of the same compound?
The hydrocholeretic activity was “has hydrocholeretic activity”.

Reference: patent publication US4361582A, “Aldose reductase inhibition by γ-oxo-8-fluoranthenebutanoic acid” (Ayerst, McKenna & Harrison Inc., priority 1981, dated 1982)
